Data taken from PubChem BioAssay AID1918955 (Molecular Pharmacology Branch, DTP, NCI, 2023).

Test system: NCI/ADR-RES complex spheroid viability
Test: Anticancer human tumor NCI/ADR-RES cell line growth inhibition;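 note: spheroids exposed to compounds for 7 days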;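 for viability, T/C: 100% = DMSO vehicle treated spheroids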
Settings: for IC50: curve of first compound; for viability, T/C: stronger effect = lower value
From the text: Multicellular complex tumor spheroid response to LSD1 Inhibitor Iadademstat in combination with a variety of drugs and investigational agents in selected tumor cell lines
The current study was undertaken to assess response to LSD1 inhibitors in combination with standard-of-care drugs and investigational agents in solid tumor complex spheroid models as well as in the K-562 leukemia. Complex spheroids include a stromal component modeled by human endothelial cells (HUVEC) and fibroblasts modeled by human mesenchymal stem cells (MSCs). The concentration ranges selected for each drug and investigational agent were based upon clinically achievable concentrations if the clinical Cmax of the agent was known.
Compounds. The drugs and investigational agents used in this study are listed on Table 1. All of the agents used, including staurosporine (NSC755774) and gemcitabine (NSC613327), were obtained from the Developmental Therapeutics Program, NCI. FDA-approved anticancer drugs are available from the NCI at http://dtp.nci.nih.gov/branches/dscb/oncology_drugset_explanation.html. Drugs and investigational agents were >95% pure by proton nuclear magnetic resonance (NMR) and liquid chromatography/mass spectrometry (LC/MS). Stock solutions were prepared at 400x in DMSO, stored at -70 degrees C, and diluted in fresh medium prior to their use. The final concentration of DMSO in cell culture wells never exceeded 0.25% (v/v). The FDA-approved anticancer drug set is available from the Developmental Therapeutics Program at https://dtp.cancer.gov/organization/dscb/obtaining/available_plates.htm. All drugs and investigational agents were tested over a range starting from a high concentration at or near the clinical Cmax and decreasing in half-log increments. If the clinical Cmax for an agent had not been determined, the highest concentration tested was 10 microM.
Cell Lines. The patient-derived cancer cell (PDC) lines: 292921-168-R-J2-PDC, K24384-001-R-PDC, and 521955-158-R2-J5-PDC pancreatic carcinomas, 556581-035-R-J1 ovarian carcinoma, 324938-238-R-J1-PDC, 855422-203-R-J1-PDC and 883617-216-R-J1-PDC urothelial bladder carcinomas, 743489-274-T-PDC renal cell carcinoma, 138582-R-J1 Merkel cell tumor, K60290-347-R-J1 and K57222-313-R-J1-PDC glioblastomas, 653999-131-R-J2-PDC, LG0703-F948-PDC, and 349418-098-R-PDC non-small cell lung carcinomas, 885512-296-R-J2-PDC, 171881-019-R-J1-PDC breast carcinomas and 186277-243-T-J2-PDC and 233499-124-R-J2-PDC colon carcinomas were obtained from the NCI Patient-Derived Models Repository (PDMR, https://pdmr.cancer.gov). The established cell lines NCI/ADR-RES (RRID:CVCL_14520 and OVCAR-5 (RRID:CVCL_1628) ovarian carcinomas, 786-O (RRID:CVCL_1051) and A498 (RRID:CVCL_A498) renal cell carcinoma, NCI-H211 (ATCC, cat. CRL-5824; RRID:CVCL_1529), NCI-H196 (ATCC, cat. CRL-5823, RRID:CVCL_1509), SW 1271 (ATCC, cat. CRL-2177, RRID:CVCL_1716) and NCI-H1876 (ATCC, cat. CRL-5902, RRID:CVCL_1503) small cell lung carcinomas, MDA-MB-231 (RRID:CVCL_0062) and MDA-MB-468 (RRID:CVCL_0419)breast carcinomas (10-12). Pooled donor human umbilical vein endothelial cells (HUVEC, Lonza, cat. CC-2519) and human mesenchymal stem cells (hMSC, Lonza, cat. PT-2501) were purchased from Lonza (Walkersville, MD).
Cell Culture. All cells were maintained in an incubator at 37 degrees C and 5% CO2 with 95% humidity. The PDC lines were cultured according to standard operating procedures established by the NCI PDMR (https://pdmr.cancer.gov). Briefly all PDCs were thawed and cultured in Matrigel-coated flasks prepared with a working solution of 1X Ham's F-12 nutrient mix, without supplementation (Invitrogen, Waltham, MA, cat. 11765054), 100 U/mL penicillin-streptomycin (Invitrogen, cat. 15140122), and 2.5% Matrigel (Corning Inc., Corning, NY, cat. 354248) for the first three passages. […]

[1] = second compound 0.1 µM, first compound 0.00316 µM
[2] = second compound 0.1 µM, first compound 0.01 µM
[3] = second compound 0.1 µM, first compound 0.0316 µM
[4] = second compound 0.1 µM, first compound 0.1 µM
[5] = second compound 0.316 µM, first compound 0.00316 µM
[6] = second compound 0.316 µM, first compound 0.01 µM
[7] = second compound 0.316 µM, first compound 0.0316 µM
[8] = second compound 0.316 µM, first compound 0.1 µM
[9] = second compound 1 µM, first compound 0.00316 µM
[10] = second compound 1 µM, first compound 0.01 µM
[11] = second compound 1 µM, first compound 0.0316 µM
[12] = second compound 1 µM, first compound 0.1 µM
[13] = second compound 3.16 µM, first compound 0.00316 µM
[14] = second compound 3.16 µM, first compound 0.01 µM
[15] = second compound 3.16 µM, first compound 0.0316 µM
[16] = second compound 3.16 µM, first compound 0.1 µM
[17] = second compound 10 µM, first compound 0.00316 µM
[18] = second compound 10 µM, first compound 0.01 µM
[19] = second compound 10 µM, first compound 0.0316 µM
[20] = second compound 10 µM, first compound 0.1 µM

CC[C@@]1(O)C(=O)OCc2c1cc1n(c2=O)Cc2cc3c(CN(C)C)c(O)ccc3nc2-1 + NC1CC1c1ccc(-c2cccc(O)c2)cc1
IC50 (second compound 0.1 µM): 8.38 nM | IC50 (second compound 0.316 µM): 8.87 nM | IC50 (second compound 1 µM): 10.5 nM | IC50 (second compound 3.16 µM): 13.3 nM | IC50 (second compound 10 µM): 13.2 nM | viability, T/C (second compound 0.1 µM, first compound 0.000316 µM): 110% | viability, T/C (second compound 0.1 µM, first compound 0.001 µM): 101% | viability, T/C [1]: 84.9% | viability, T/C [2]: 43.3% | viability, T/C [3]: 13.4% | viability, T/C [4]: 2.49% | viability, T/C (second compound 0.316 µM, first compound 0.000316 µM): 111% | viability, T/C (second compound 0.316 µM, first compound 0.001 µM): 103% | viability, T/C [5]: 86.2% | viability, T/C [6]: 45.2% | viability, T/C [7]: 14.9% | viability, T/C [8]: 2.48% | viability, T/C (second compound 1 µM, first compound 0.000316 µM): 101% | viability, T/C (second compound 1 µM, first compound 0.001 µM): 98.9% | viability, T/C [9]: 83.5% | viability, T/C [10]: 52.2% | viability, T/C [11]: 16.3% | viability, T/C [12]: 2.84% | viability, T/C (second compound 3.16 µM, first compound 0.000316 µM): 97% | viability, T/C (second compound 3.16 µM, first compound 0.001 µM): 94% | viability, T/C [13]: 81.2% | viability, T/C [14]: 60.1% | viability, T/C [15]: 23.7% | viability, T/C [16]: 4.48% | viability, T/C (second compound 10 µM, first compound 0.000316 µM): 95.1% | viability, T/C (second compound 10 µM, first compound 0.001 µM): 82.3% | viability, T/C [17]: 74.2% | viability, T/C [18]: 57.1% | viability, T/C [19]: 31.4% | viability, T/C [20]: 9.59%

COc1cc(C2c3cc4c(cc3C(OC3OC5COC(C)OC5C(O)C3O)C3COC(=O)C23)OCO4)cc(OC)c1O (stereo not given) + NC1CC1c1ccc(-c2cccc(O)c2)cc1
IC50 (second compound 0.1 µM): > 3000 nM | IC50 (second compound 0.316 µM): > 3000 nM | IC50 (second compound 1 µM): > 3000 nM | IC50 (second compound 3.16 µM): > 3000 nM | IC50 (second compound 10 µM): > 3000 nM | viability, T/C (second compound 0.1 µM, first compound 0.00949 µM): 104% | viability, T/C (second compound 0.1 µM, first compound 0.03 µM): 112% | viability, T/C (second compound 0.1 µM, first compound 0.0949 µM): 106% | viability, T/C (second compound 0.1 µM, first compound 0.3 µM): 101% | viability, T/C (second compound 0.1 µM, first compound 0.949 µM): 100% | viability, T/C (second compound 0.1 µM, first compound 3 µM): 90.4% | viability, T/C (second compound 0.316 µM, first compound 0.00949 µM): 113% | viability, T/C (second compound 0.316 µM, first compound 0.03 µM): 104% | viability, T/C (second compound 0.316 µM, first compound 0.0949 µM): 106% | viability, T/C (second compound 0.316 µM, first compound 0.3 µM): 104% | viability, T/C (second compound 0.316 µM, first compound 0.949 µM): 103% | viability, T/C (second compound 0.316 µM, first compound 3 µM): 92.6% | viability, T/C (second compound 1 µM, first compound 0.00949 µM): 102% | viability, T/C (second compound 1 µM, first compound 0.03 µM): 101% | viability, T/C (second compound 1 µM, first compound 0.0949 µM): 99.6% | viability, T/C (second compound 1 µM, first compound 0.3 µM): 96.5% | viability, T/C (second compound 1 µM, first compound 0.949 µM): 92.7% | viability, T/C (second compound 1 µM, first compound 3 µM): 92.4% | viability, T/C (second compound 3.16 µM, first compound 0.00949 µM): 98.5% | viability, T/C (second compound 3.16 µM, first compound 0.03 µM): 100% | viability, T/C (second compound 3.16 µM, first compound 0.0949 µM): 95.2% | viability, T/C (second compound 3.16 µM, first compound 0.3 µM): 95.7% | viability, T/C (second compound 3.16 µM, first compound 0.949 µM): 94.2% | viability, T/C (second compound 3.16 µM, first compound 3 µM): 84.9% | viability, T/C (second compound 10 µM, first compound 0.00949 µM): 84.6% | viability, T/C (second compound 10 µM, first compound 0.03 µM): 81% | viability, T/C (second compound 10 µM, first compound 0.0949 µM): 79.3% | viability, T/C (second compound 10 µM, first compound 0.3 µM): 80.2% | viability, T/C (second compound 10 µM, first compound 0.949 µM): 78.6% | viability, T/C (second compound 10 µM, first compound 3 µM): 71.1%

Nc1ncn(C2CC(O)C(CO)O2)c(=O)n1 (stereo not given) + NC1CC1c1ccc(-c2cccc(O)c2)cc1
IC50 (second compound 0.1 µM): 49.3 nM | IC50 (second compound 0.316 µM): 49.1 nM | IC50 (second compound 1 µM): 38.4 nM | IC50 (second compound 3.16 µM): 46 nM | IC50 (second compound 10 µM): 25.4 nM | viability, T/C [1]: 90.5% | viability, T/C [2]: 79.4% | viability, T/C [3]: 61.5% | viability, T/C [4]: 32.8% | viability, T/C (second compound 0.1 µM, first compound 0.316 µM): 19.9% | viability, T/C (second compound 0.1 µM, first compound 1 µM): 13.6% | viability, T/C [5]: 93.3% | viability, T/C [6]: 83% | viability, T/C [7]: 62% | viability, T/C [8]: 31.3% | viability, T/C (second compound 0.316 µM, first compound 0.316 µM): 17.8% | viability, T/C (second compound 0.316 µM, first compound 1 µM): 12.5% | viability, T/C [9]: 88.5% | viability, T/C [10]: 77.5% | viability, T/C [11]: 53.4% | viability, T/C [12]: 30.4% | viability, T/C (second compound 1 µM, first compound 0.316 µM): 15.8% | viability, T/C (second compound 1 µM, first compound 1 µM): 10.8% | viability, T/C [13]: 94.6% | viability, T/C [14]: 78.3% | viability, T/C [15]: 61% | viability, T/C [16]: 32% | viability, T/C (second compound 3.16 µM, first compound 0.316 µM): 15% | viability, T/C (second compound 3.16 µM, first compound 1 µM): 12.4% | viability, T/C [17]: 73.5% | viability, T/C [18]: 63.7% | viability, T/C [19]: 45.5% | viability, T/C [20]: 32.2% | viability, T/C (second compound 10 µM, first compound 0.316 µM): 16.1% | viability, T/C (second compound 10 µM, first compound 1 µM): 11.8%
